Experimental data reported in PMC11189555, “Aryl amino acetamides prevent Plasmodium falciparum ring development via targeting the lipid-transfer protein PfSTART1” (Nature Communications, 2024).
Like-named read-outs stand apart in the source and are kept apart here.

How the values were obtained:
[1] = test system: 3D7 P. falciparum parasites; assay: Growth inhibition assay (72 h, LDH activity); type: cell-based, Plasmodium falciparum; conditions: for inhibition at 0.078125 µM / inhibition at 0.15625 µM / inhibition at 0.3125 µM / inhibition at 0.625 µM / inhibition at 1.25 µM / inhibition at 2.5 µM / inhibition at 5 µM / inhibition at 10 µM / EC50 / inhibition at 0.0390625 µM: Plasmodium falciparum; for inhibition at 10 µM: read-out: % Inhibition; for inhibition at 0.0390625 µM: 3D7, M-833 0.0390625 uM
Method: (§1) Parasite growth assays with inhibitory compounds were performed as per[11] and are fully described in the Supplementary Information. […]
(§2) Growth inhibition assays. Synchronised ring-stage parasites (0.3-0.6% parasitemia, 2% haematocrit) were grown for 72 h in a serial-dilution of the compound under […]
(§3) and compound 4. Note that M-833 was first purchased from MolPort (MolPort -002-267-916) then made in-house at WEHI: the differences observed in EC50s across experiments are attributed to the different batches of M -833. For some experiments, 0, 0.25 or 2.5 mM of glucosamine (GlcN) was also added. Experiments were set up in technical duplicates or triplicates. Following a freeze -thaw cycle, lactate dehydrogenase (LDH) activity was assessed as an indicator of parasite growt h 5. 30 μL of parasite culture was incubated for 30 min in the dark with 75 μL Malstat mixture (0.1 M Tris pH 9.0, 20 g/L lactic acid, pH 7.5, 0.2% Triton-X100, 0.5 g/L acetylpyridine adenine dinucleotide (APAD, Sigma), 200 μg/mL nitroblue tetrazolium (NBT; Sigma), 1 μg/mL phenozine ethosulfate (PES; Sigma)). Absorbance was then measured at 650 nm, transformed using the formula below, plotted against the logarithm of the concentrations, and a non-linear regression (log(inhibitor) vs. response, variable slope) was calculated using GraphPad Prism to assess the half-inhibitory […]
(§4) Growth inhibition % = (1 − average(sample)− average(uRBC)) ∗ 100 […]
(§5) The DMSO samples were also used to assess growth of parasite in the presence of 0.25 and 2.5 mM GlcN (normalised by DMSO in 0 mM GlcN). […]

[2] = test system: PopE-F10 M-833 resistant clone (PfSTART1 N330K); assay: Growth inhibition assay (72 h, LDH activity); type: cell-based, Plasmodium falciparum; conditions: for inhibition at 0.0390625 µM / inhibition at 0.078125 µM: read-out: % Inhibition
Method: The drug was then removed, and parasites were allowed to recover. Another cycle of drug treatment (3 μM M-833) was then resumed. The resistant lines were cloned out by limiting dilution (diluting the culture into a 96-well plate to achieve an average of ~0.3 parasites per well), prior to growth inhibition assays and genomic DNA (gDNA) extraction (DNeasy Blood and Tissue kit (Qiagen)[18].
as §1, §2, §3, §4, §5

Compound: Cc1cc(Cl)c(S(=O)(=O)N2CCCC2)cc1OCC(=O)NC1CCCCC1 [M-833]
- inhibition at 0.078125 µM ([1]; 3D7, 3D7 replicate 1, M-833 0.078125 uM): 21.8%
- inhibition at 0.15625 µM ([1]; 3D7, 3D7 replicate 1, M-833 0.15625 uM): 47%
- inhibition at 0.3125 µM ([1]; 3D7, 3D7 replicate 1, M-833 0.3125 uM): 68.2%
- inhibition at 0.625 µM ([1]; 3D7, 3D7 replicate 1, M-833 0.625 uM): 84.4%
- inhibition at 1.25 µM ([1]; 3D7, 3D7 replicate 1, M-833 1.25 uM): 93.1%
- inhibition at 2.5 µM ([1]; 3D7, 3D7 replicate 1, M-833 2.5 uM): 95.8%
- inhibition at 5 µM ([1]; 3D7, 3D7 replicate 1, M-833 5 uM): 95.5%
- inhibition at 10 µM ([1]; 3D7, 3D7 replicate 1, M-833 10 uM): 97.3%
- EC50 ([1]; 3D7, 72 h, Fig 2B, 3D7, 72 h, n = 3, unit only in x-axis title, read-out: EC50 (95% confidence interval)): 97.6 nM
- EC50 ([1]; 3D7, 72 h, Fig 2D, 3D7, 72 h, n = 3, read-out: EC50 (95% confidence interval)): 49.7 nM
- EC50 ([1]; 3D7, 72 h, Supplementary Table 1, 3D7, 72 h, read-out: EC50): 156 nM
- EC50 ([1]; 3D7, Fig 1B, 3D7, 10 µM to 0.04 µM M-833, n = 3, unit only on x-axis label, read-out: EC50 (95% confidence interval)): 170 nM
- EC50 ([1]; 3D7, Fig 3C, 3D7, 0 mM GlcN, n = 4, unit on plot axis, read-out: EC50 M-833 (95% confidence interval)): 157 nM
- EC50 ([1]; 3D7, Fig 3C, 3D7, 0.25 mM GlcN, n = 4, unit on plot axis, read-out: EC50 M-833 (95% confidence interval)): 158 nM
- EC50 ([1]; 3D7, Fig 3C, 3D7, 2.5 mM GlcN, n = 4, unit on plot axis, read-out: EC50 M-833 (95% confidence interval)): 118 nM
- EC50 ([1]; 3D7, Fig 3F, 3D7, 0.25 mM GlcN, n = 3, read-out: EC50 M-833 (95% confidence interval)): 54.8 nM
- EC50 ([1]; 3D7, Fig 3F, 3D7, 2.5 mM GlcN, n = 3, read-out: EC50 M-833 (95% confidence interval)): 37.3 nM
- EC50 ([1]; 3D7, Fig 4A, 3D7 parasites, read-out: Pf 3D7 EC50 (SD)): 1100 nM
- inhibition at 0.0390625 µM ([1]; 3D7 replicate 1): 1.91%
- inhibition at 0.0390625 µM ([1]; 3D7 replicate 3): -5.13%
- inhibition at 0.078125 µM ([1]; 3D7, M-833 0.078125 uM, 3D7 replicate 1): 30.8%
- inhibition at 0.078125 µM ([1]; 3D7, M-833 0.078125 uM, 3D7 replicate 3): -1.15%
- inhibition at 0.15625 µM ([1]; 3D7, M-833 0.15625 uM, 3D7 replicate 1): 57.1%
- inhibition at 0.15625 µM ([1]; 3D7, M-833 0.15625 uM, 3D7 replicate 3): 12.4%
- inhibition at 0.3125 µM ([1]; 3D7, M-833 0.3125 uM, 3D7 replicate 1): 82.6%
- inhibition at 0.3125 µM ([1]; 3D7, M-833 0.3125 uM, 3D7 replicate 3): 44.5%
- inhibition at 0.625 µM ([1]; 3D7, M-833 0.625 uM, 3D7 replicate 1): 87.3%
- inhibition at 0.625 µM ([1]; 3D7, M-833 0.625 uM, 3D7 replicate 3): 64.5%
- inhibition at 1.25 µM ([1]; 3D7, M-833 1.25 uM, 3D7 replicate 1): 91%
- inhibition at 1.25 µM ([1]; 3D7, M-833 1.25 uM, 3D7 replicate 3): 73.5%
- inhibition at 2.5 µM ([1]; 3D7, M-833 2.5 uM, 3D7 replicate 1): 91.8%
- inhibition at 2.5 µM ([1]; 3D7, M-833 2.5 uM, 3D7 replicate 3): 77.3%
- inhibition at 5 µM ([1]; 3D7, M-833 5 uM, 3D7 replicate 1): 91.3%
- inhibition at 5 µM ([1]; 3D7, M-833 5 uM, 3D7 replicate 3): 83.4%
- inhibition at 10 µM ([1]; 3D7, M-833 10 uM, 3D7 replicate 1): 91.1%
- inhibition at 10 µM ([1]; 3D7, M-833 10 uM, 3D7 replicate 3): 78%
- effect of GlcN addition on EC50 ([1]; control 3D7): did not change the EC50
- Normalised to DMSO ([2]; M-833 0.0390625 uM, Pop E-F10 replicate 1): 109.097
- Normalised to DMSO ([2]; M-833 0.0390625 uM, Pop E-F10 replicate 3): 103.799
- Normalised to DMSO ([2]; M-833 0.078125 uM, Pop E-F10 replicate 1): 108.039
- Normalised to DMSO ([2]; M-833 0.078125 uM, Pop E-F10 replicate 3): 104.854
- Normalised to DMSO ([2]; M-833 0.15625 uM, Pop E-F10 replicate 1): 116.502
- Normalised to DMSO ([2]; M-833 0.15625 uM, Pop E-F10 replicate 3): 108.125
- Normalised to DMSO ([2]; M-833 0.3125 uM, Pop E-F10 replicate 1): 113.047
- Normalised to DMSO ([2]; M-833 0.3125 uM, Pop E-F10 replicate 3): 113.296
- Normalised to DMSO ([2]; M-833 0.625 uM, Pop E-F10 replicate 1): 116.996
- Normalised to DMSO ([2]; M-833 0.625 uM, Pop E-F10 replicate 3): 104.749
- Normalised to DMSO ([2]; M-833 1.25 uM, Pop E-F10 replicate 1): 105.924
- Normalised to DMSO ([2]; M-833 1.25 uM, Pop E-F10 replicate 3): 104.326
- Normalised to DMSO ([2]; M-833 2.5 uM, Pop E-F10 replicate 1): 101.551
- Normalised to DMSO ([2]; M-833 2.5 uM, Pop E-F10 replicate 3): 105.276
- Normalised to DMSO ([2]; M-833 5 uM, Pop E-F10 replicate 1): 94.8519
- Normalised to DMSO ([2]; M-833 5 uM, Pop E-F10 replicate 3): 96.4122
- Normalised to DMSO ([2]; M-833 10 uM, Pop E-F10 replicate 1): 72.2144
- Normalised to DMSO ([2]; M-833 10 uM, Pop E-F10 replicate 3): 80.0563
- EC50 ([2]; Plasmodium falciparum, 72 h, Supplementary Table 1, PopE-F10 (N330K)): > 20000 nM
- inhibition at 0.0390625 µM ([2]; Plasmodium falciparum, M-833 0.0390625 uM, Pop E-F10 replicate 1): -9.1%
- inhibition at 0.0390625 µM ([2]; Plasmodium falciparum, M-833 0.0390625 uM, Pop E-F10 replicate 3): -3.8%
- inhibition at 0.078125 µM ([2]; Plasmodium falciparum, M-833 0.078125 uM, Pop E-F10 replicate 1): -8.04%
- inhibition at 0.078125 µM ([2]; Plasmodium falciparum, M-833 0.078125 uM, Pop E-F10 replicate 3): -4.85%
